# Data as given in patent US20250319110A1, “SURFACE CALR CHEMICAL INDUCERS” (THE CHILDREN'S MEDICAL CENTER CORPORATION, priority 2022, published 2025).
# Where a name gives a salt, the structure may show the parent alone. Where a SMILES comes first, the peptide text is derived from it. The star is where a group is joined. Cbz = O=C(OCc1ccccc1)*
# System: reactive oxygen species (ROS)
# Experiment: ROS production by CALR agonists (ROS+ / ROS− classification of screen hits)
# Assay type: cell-based, human
# Details: CALR agonists that do not stimulate ROS production or only to negligible levels
# Method: To systematically evaluate pathways triggering surface CALR, a panel of 1200 bioactive small molecules in human cells were screened. Surface CALR expression was evaluated by imaging a CALR-antibody coupled with a fluorophore and by a SPLIT-TURBO ID construct targeting the association of […] (Cadherin 2), a membrane protein, and CALR. 93 out of 1200 compounds screened increased surface CALR with a robust dosage response. Chemical annotation further supported that ROS+ drugs were associated with FOXO1A and oxidative stress, while the ROS− drugs were associated with G protein-coupled receptor signaling and cellular calcium ion homeostasis. In vivo ROS− drugs induced macrophage-stem cell interaction and grooming behavior, while ROS+ drugs enhanced the macrophage-stem cell interaction, but not grooming. Collectively, the work described herein has identified ROS as a signal that upregulates surface CALR and promotes macrophage-stem cell interactions, safeguarding the development of stem cells that are stressed or damaged.
# As described in the examples herein, some CALR agonists do stimulate reactive oxygen species (ROS) production; or stimulate ROS production to statistically significant levels. This group of CALR agonists are referred to herein as “ROS+ CALR agonists.” ROS+ CALR agonists include Ibudilast; zaprinast; FK-520; AG1478; bongkrekic acid; GW9508; fusidic acid; beta-lapachone; fusaric acid; fenspiride; zardaverine; docosahexaenoic acid, loxoprofen; AG1480; flufenamic acid; and MG-132.
# This group of CALR agonists are referred to herein as “ROS− CALR agonists.” ROS-CALR agonists include DL-threo-1-Phenyl-2-palmitoylamino-3-morpholino-1-propanol; cambinol; ganciclovir; 8-bromo-GMP; arvanil; thiocitrulline; and isoguvacine. In some embodiments, an at least one ROS− CALR agonist can be selected from the group consisting of: DL-threo-1-Phenyl-2-palmitoylamino-3-morpholino-1-propanol; ganciclovir; 8-bromo-GMP; arvanil; thiocitrulline; and isoguvacine.
# A chemical screen was conducted to identify surface CALR inducers in a ROS-associated and a ROS-independent manner (FIG. 4). Hits from the screen was validated in vivo as CALR inducers (FIGS. 5A-5B). ROS− drugs tended to induce macrophage-stem cell interaction and proliferation. ROS+ drugs tended to promote dooming (FIGS. 6A-6C).
row,Structure (SMILES),ROS production class of CALR agonist
1,"O=C(O)C1=CCNCC1 [isoguvacine, 1,2,3,6-tetrahydropyridine-4-carboxylic acid]",ROS−
2,CCCCCCCCCCCCCCCC(=O)N[C@H](CN1CCOCC1)[C@H](O)c1ccccc1 (racemic) [DL-threo-1-Phenyl-2-palmitoylamino-3-morpholino-1-propanol],ROS−
3,"Nc1nc(O)c2ncn(COC(CO)CO)c2n1 [ganciclovir, 2-Nor-2′-deoxyguanosine]",ROS−
4,"CSC(=N)NCCC[C@H](N)C(=O)O.Cl.Cl [thiocitrulline, N^5-[imino(methylthio)methyl]-L-ornithine, dihydrochloride]",ROS−
5,"O=c1[nH]c(=S)[nH]c(-c2ccccc2)c1Cc1c(O)ccc2ccccc12 [cambinol, 5-[(2-hydroxynaphthalen-1-yl)methyl]-6-phenyl-2-sulfanylidene-1H-pyrimidin-4-one]",ROS−
6,"CCCCC/C=C\C/C=C\C/C=C\C/C=C\CCCC(=O)NCc1ccc(O)c(OC)c1 [arvanil, N-vanillylarachidonamide]",ROS−
7,"Nc1nc2c(nc(Br)n2[C@@H]2O[C@H](COP(=O)(O)O)[C@@H](O)[C@H]2O)c(=O)[nH]1 [8-bromo-GMP, 8-bromo-guanosine monophosphate]",ROS−

# Same assay, conditions: CALR agonists that stimulate ROS production
row,Structure (SMILES),ROS production class of CALR agonist
1,CC/C=C\C/C=C\C/C=C\C/C=C\C/C=C\C/C=C\CCC(=O)O [docosahexaenoic acid],ROS+
2,"CCCOc1ccccc1-c1nc2n[nH]nc2c(=O)[nH]1 [zaprinast, 5-(2-propoxyphenyl)-2,6-dihydrotriazolo[4,5-d]pyrimidin-7-one]",ROS+
3,"COc1cc(-c2ccc(=O)[nH]n2)ccc1OC(F)F [zardaverine, 6-[4-(difluoromethoxy)-3-methoxyphenyl]-3(2H)-pyridazinone]",ROS+
4,"CO[C@H](C/C=C\C=C\CC/C=C/C[C@H](C)/C=C/C(=C\C(=O)O)CC(=O)O)/C(C)=C\C=C(/C)C(=O)O [bongkrekic acid, (2E,4Z,6R,8Z,10E,14E,17S,18E,20Z)-20-(carboxymethyl)-6-methoxy-2,5,17-trimethyldocosa-2,4,8,10,14,18,20-heptaenedioic acid]",ROS+
5,"CC1(C)CCC2=C(O1)c1ccccc1C(=O)C2=O [beta-lapachone, 2,2-dimethyl-3,4-dihydrobenzo[h]chromene-5,6-dione]",ROS+
6,"O=C(O)c1ccccc1Nc1cccc(C(F)(F)F)c1 [flufenamic acid, 2-[3-(trifluoromethyl)anilino]benzoic acid]",ROS+
7,"O=C(O)CCc1ccc(NCc2cccc(Oc3ccccc3)c2)cc1 [GW9508, 4-[[(3-phenoxyphenyl)methyl]amino]-benzenepropanoic acid]",ROS+
8,CCCCc1ccc(C(=O)O)nc1 [fusaric acid],ROS+
9,"CC(C(=O)O)c1ccc(CC2CCCC2=O)cc1 (racemic) [loxoprofen, (RS)-2-{4-[(2-oxocyclopentyl)methyl]phenyl}propanoic acid]",ROS+
10,"CC(C)C[C@@H](C=O)NC(=O)[C@H](CC(C)C)NC(=O)[C@H](CC(C)C)NC(=O)OCc1ccccc1 [MG-132, benzyl N-[(2S)-4-methyl-1-[[(2S)-4-methyl-1-[[(2S)-4-methyl-1-oxopentan-2-yl]aamino]-1-oxopentan-2-yl]amino]-1-oxopentan-2-yl]carbamate] (Cbz-Leu-Leu-Leu-aldehyde)",ROS+
11,"O=C1NCC2(CCN(CCc3ccccc3)CC2)O1 [fenspiride, 8-(2-phenylethy)-1-oxa-3,8-diazaspiro[4.5]decan-2-one, monohydrochloride]",ROS+
12,"CC[C@@H]1/C=C(\C)C[C@H](C)C[C@H](OC)[C@H]2O[C@@](O)(C(=O)C(=O)N3CCCC[C@H]3C(=O)O[C@H](/C(C)=C/[C@@H]3CC[C@@H](O)[C@H](OC)C3)[C@H](C)[C@@H](O)CC1=O)[C@H](C)C[C@@H]2OC [FK-520, ascomycin]",ROS+
13,"CC(C)C(=O)c1c(C(C)C)nn2ccccc12 [Ibudilast, 2-methyl-1-(2-propan-2-ylpyrazolo[1,5-a]pyridin-3-yl)propan-1-one]",ROS+
14,CC(=O)O[C@H]1C[C@@]2(C)[C@@H](C[C@@H](O)[C@H]3[C@@]4(C)CC[C@@H](O)[C@@H](C)[C@@H]4CC[C@@]32C)/C1=C(\CCC=C(C)C)C(=O)O [fusidic acid],ROS+
15,"COc1cc2ncnc(Nc3cccc(Cl)c3)c2cc1OC [AG1478, N-(3-chlorophenyl)-6,7-dimethoxyquinazolin-4-amine]",ROS+
